Measurements from US4081441A, “Antibacterial agents” (priority 1977, dated 1978).
Like-named read-outs stand apart in the source and are kept apart here.

What was measured:
[1] = system: Cl. ramosum; experiment: M.I.C. against anaerobic bacteria, Cl. ramosum; assay type: cell-based; details: Thomasclavelia ramosa
[2] = system: Cl. septicum; experiment: M.I.C. against anaerobic bacteria, Cl. septicum; assay type: cell-based; details: Clostridium septicum; strain A21869
[3] = system: Pseudomonas aeruginosa; experiment: Minimum Bactericidal Concentration, inoculum 10^5 cells/ml., at least 99.9% kill; assay type: cell-based
Text: The effect of increased inoculum size on the bactericidal activity of BL-P1908 was investigated by a second test in which an inoculum size of 10^5 cells/ml. was used and the M.B.C. was defined as the lowest concentration of antibiotics in mcg./ml. needed to kill at least 99.9% of viable Pseudomonas cells.

[4] = system: Pseudomonas aeruginosa; experiment: animal or person; details: in Mus musculus, im
[5] = system: Cl. difficile; experiment: M.I.C. against anaerobic bacteria, Cl. difficile; assay type: cell-based; details: Clostridioides difficile
[6] = system: Cl. acidiurici; experiment: M.I.C. against anaerobic bacteria, Cl. acidiurici; assay type: cell-based; details: strain A9560
[7] = system: Cl. cylindrosporum; experiment: M.I.C. against anaerobic bacteria, Cl. cylindrosporum; assay type: cell-based; details: strain A9562
[8] = system: Bacteroides fragilis; experiment: M.I.C. against anaerobic bacteria, Bacteroides fragilis; assay type: cell-based
[9] = system: Cl. perfringens; experiment: microbe, parasite or virus in culture; assay type: cell-based; details: Clostridium perfringens
[10] = system: Pseudomonas aeruginosa; experiment: Minimum Inhibitory Concentration, agar dilution, overnight incubation at 37° C.; assay type: cell-based; details: Pseudomonas aeruginosa
Text: A carbenicillin sample was also run for comparative purposes.

[11] = Mouse blood (plasma) antibiotic levels after single intramuscular dose; assay type: in vivo; details: im, 40 mg/kg, mice, 40 mg./kg. i.m.; for concentration at 0.25 h: 15 min.; for concentration at 0.5 h: 30 min.; for concentration at 1 h: 60 min.; for concentration at 1.5 h: 90 min.
Experimental: Plasma antibiotic levels from mice administered a single intramuscular dose of 40 mg./kg. of BL-[…] or carbenicillin are shown in the following table.

[12] = system: Pseudomonas aeruginosa; experiment: In vitro bactericidal synergism, broth dilution checkerboard; assay type: cell-based; details: for MBC: Pseudomonas aeruginosa, drug alone, read-out: Minimum Bactericidal Concentration
[13] = system: Pseudomonas aeruginosa; experiment: Minimum Bactericidal Concentration, inoculum 10^4 cells/ml., at least 99% kill; assay type: cell-based
Experimental: The bactericidal in vitro activity of sodium D(-)-6-(α-(1,2,4-triazine-3,5-dione-6-carboxamido)-4-hydroxyphenylacetamido)penicillanate (BL-P1908) against several strains of Pseudomonas aeruginosa was determined under two sets of conditions. In one test the Minimum Bactericidal Concentrations (M.B.C.) were determined using an inoculum size of 10^4 cells/ml. and the M.B.C. was defined as the lowest concentration of antibiotic in mcg./ml. needed to kill at least 99% of the viable Pseudomonas cells.

[14] = Ave. of Tests 1 and 2, read-out: Blood Level
[15] = Test 1 (Ave. of 6 mice tested), read-out: Blood Level
[16] = Test 2 (Ave. of 8 mice tested), read-out: Blood Level

CC1(C)S[C@@H]2[C@H](NC(=O)[C@H](NC(=O)c3n[nH]c(=O)[nH]c3=O)c3ccc(O)cc3)C(=O)N2[C@H]1C(=O)O [BL-P1908, sodium D(-)-6-(α-(1,2,4-triazine-3,5-dione-6-carboxamido)-4-hydroxyphenylacetamido)penicillanate]
MIC ([1]; strain A21883): 0.25 µg/mL | MIC ([1]; strain A21970): 2 µg/mL | MIC [2]: 1 µg/mL | MBC ([3]; strain 9843A): 500 µg/mL | MBC ([3]; strain 9910): 500 µg/mL | MBC ([3]; strain 9926): 250 µg/mL | MBC ([3]; strain 20126): 32 µg/mL | MBC ([3]; strain 20128): 16 µg/mL | MBC ([3]; strain 20227): 4 µg/mL | MBC ([3]; strain 20228): 250 µg/mL | MBC ([3]; strain 20546): 500 µg/mL | MBC ([3]; strain 20557): 1000 µg/mL | MBC ([3]; strain 20574): > 1000 µg/mL | MBC ([3]; strain 20602): 1000 µg/mL | MBC ([3]; strain 20616): 1000 µg/mL | MBC ([3]; strain 20641): 1000 µg/mL | MBC ([3]; strain 20717): > 1000 µg/mL | MBC ([3]; strain 20726): 1000 µg/mL | MBC ([3]; strain 21336): 1000 µg/mL | ED50 ([4]; read-out: PD50 /treatment, P. aeruginosa A9843A, challenge 1 × 10^4, i.m., at 0 and 2 hours): 4.8 mg/kg | ED50 ([4]; read-out: PD50 /treatment, P. aeruginosa A9843A, challenge 2 × 10^4, i.m., at 0 and 2 hours): 2.5 mg/kg | ED50 ([4]; read-out: PD50 /treatment, P. aeruginosa A9843A, challenge 3 × 10^4, i.m., at 0 and 2 hours): 11 mg/kg | ED50 ([4]; read-out: PD50 /treatment, P. aeruginosa A20599, challenge 3 × 10^4, i.m., at 0 and 2 hours): 5.4 mg/kg | ED50 ([4]; read-out: PD50 /treatment, P. aeruginosa A20599, challenge 6 × 10^4, i.m., at 0 and 2 hours): 9.6 mg/kg | MIC ([5]; strain A21675): 2 µg/mL | MIC ([5]; strain A21972): 4 µg/mL | MIC [6]: 1 µg/mL | MIC [7]: 16 µg/mL | MIC ([8]; strain A20920): 1 µg/mL | MIC ([8]; strain A20926): 2 µg/mL | MIC ([8]; strain A20927-1): 1 µg/mL | MIC ([8]; strain A20930): 16 µg/mL | MIC ([8]; strain A20933): 8 µg/mL | MIC ([8]; strain A20934): 4 µg/mL | MIC ([8]; strain A20935): 1 µg/mL | MIC ([8]; strain A21870): 16 µg/mL | MIC ([8]; strain A21871): 16 µg/mL | MIC ([8]; strain A21872): 16 µg/mL | MIC ([8]; strain A21875): 4 µg/mL | MIC ([8]; strain A22053): 8 µg/mL | MIC ([8]; strain A27020): 16 µg/mL | MIC ([9]; strain A21873): 0.13 µg/mL | MIC ([9]; strain A21874): 0.13 µg/mL | MIC ([9]; strain A21907): 0.13 µg/mL | MIC ([10]; strain A9502): 2 µg/mL | MIC ([10]; strain A9827): 1 µg/mL | MIC ([10]; strain A9910): 1 µg/mL | MIC ([10]; strain A9923): 2 µg/mL | MIC ([10]; strain A9924): 2 µg/mL | MIC ([10]; strain A9925): 1 µg/mL | MIC ([10]; strain A9926): 1 µg/mL | MIC ([10]; strain A9930): 2 µg/mL | MIC ([10]; strain A9931): 1 µg/mL | MIC ([10]; strain A15150): 2 µg/mL | MIC ([10]; strain A15151): 8 µg/mL | MIC ([10]; strain A15194): 4 µg/mL | MIC ([10]; strain A15195): 2 µg/mL | MIC ([10]; strain A15196): 2 µg/mL | MIC ([10]; strain A20125): 2 µg/mL | MIC ([10]; strain A20126): 0.5 µg/mL | MIC ([10]; strain A20127): 1 µg/mL | MIC ([10]; strain A20128): 1 µg/mL | MIC ([10]; strain A20129): 1 µg/mL | MIC ([10]; strain A20130): 1 µg/mL | MIC ([10]; strain A20227): 0.5 µg/mL | MIC ([10]; strain A20228): 1 µg/mL | MIC ([10]; strain A20546): 2 µg/mL | MIC ([10]; strain A20557): 4 µg/mL | MIC ([10]; strain A20574): 0.5 µg/mL | MIC ([10]; strain A20602): 2 µg/mL | MIC ([10]; strain A20616): 1 µg/mL | MIC ([10]; strain A20641): 0.5 µg/mL | MIC ([10]; strain A20717): 4 µg/mL | MIC ([10]; strain A20726): 1 µg/mL | MIC ([10]; strain A21336): 2 µg/mL | concentration at 0.25 h [11, 14]: 26700 ng/mL | concentration at 0.25 h [11, 15]: 24900 ng/mL | concentration at 0.25 h [11, 16]: 28400 ng/mL | concentration at 0.5 h [11, 14]: 17300 ng/mL | concentration at 0.5 h [11, 15]: 19400 ng/mL | concentration at 0.5 h [11, 16]: 15100 ng/mL | concentration at 1 h [11, 14]: 5300 ng/mL | concentration at 1 h [11, 15]: 7500 ng/mL | concentration at 1 h [11, 16]: 3000 ng/mL | concentration at 1.5 h [11, 14]: < 2900 ng/mL | concentration at 1.5 h [11, 15]: < 3900 ng/mL | concentration at 1.5 h [11, 16]: < 1800 ng/mL | MBC ([12]; strain A20552): 500 µg/mL | MBC ([12]; strain A21509): 500 µg/mL | MBC ([12]; strain A21510): 100 µg/mL | strain sensitivity ([12]; strain A9843A): sensitive | strain sensitivity ([12]; strain A20480): resistant | strain sensitivity ([12]; strain A20552): sensitive | strain sensitivity ([12]; strain A20620): resistant | strain sensitivity ([12]; strain A21509): sensitive | strain sensitivity ([12]; strain A21510): sensitive | MBC ([13]; strain 9843A): 63 µg/mL | MBC ([13]; strain 9910): 1 µg/mL | MBC ([13]; strain 9926): 2 µg/mL | MBC ([13]; strain 20126): 2 µg/mL | MBC ([13]; strain 20128): 2 µg/mL | MBC ([13]; strain 20227): 2 µg/mL | MBC ([13]; strain 20228): 8 µg/mL | MBC ([13]; strain 20546): 1 µg/mL | MBC ([13]; strain 20557): 16 µg/mL | MBC ([13]; strain 20574): 2 µg/mL | MBC ([13]; strain 20616): 2 µg/mL | MBC ([13]; strain 20641): 4 µg/mL | MBC ([13]; strain 20717): 63 µg/mL | MBC ([13]; strain 20726): 2 µg/mL | MBC ([13]; strain 21336): 2 µg/mL
